# Results published in patent US10508104B2, “6-hydroxy-5-(phenyl/heteroarylsulfonyl)pyrimidin-4(1H)-one as APJ agonists” (Bristol-Myers Squibb Company, priority 2016, dated 2019).
# Biological target: human APJ receptor (Homo sapiens (Human), UniProt P35414)
# Test: Intracellular cAMP accumulation assay (APJ hcAMP, HTRF)
# Type: cell-based
# Conditions: HEK293 cells stably expressing human APJ receptor; inhibition of forskolin-mediated cAMP production; read-out: Human APJ cAMP EC50 Potency range
# Outline: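 HEK293 cells stably expressing human APJ, 5,000 per well, incubated 30 min at rt with compound, […] and 2 μM forskolin. cAMP measured by HTRF against a cAMP standard curve as inhibition of forskolin-driven production. EC50 from variable-slope sigmoidal fit.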
# Sequence of human APJ receptor (P35414 whole entry): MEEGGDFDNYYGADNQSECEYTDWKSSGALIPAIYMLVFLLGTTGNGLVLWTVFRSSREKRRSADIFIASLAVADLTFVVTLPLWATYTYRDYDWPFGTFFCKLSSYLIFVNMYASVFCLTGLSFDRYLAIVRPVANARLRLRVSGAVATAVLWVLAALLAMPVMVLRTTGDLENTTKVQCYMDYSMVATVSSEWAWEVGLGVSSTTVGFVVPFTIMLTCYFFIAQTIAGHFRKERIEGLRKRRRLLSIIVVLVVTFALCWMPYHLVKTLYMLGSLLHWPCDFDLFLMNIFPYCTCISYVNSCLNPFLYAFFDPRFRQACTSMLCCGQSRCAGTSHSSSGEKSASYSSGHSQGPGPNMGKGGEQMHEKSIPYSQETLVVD
row,Compound,EC50
1,"CCCCc1nc(=O)c(S(=O)(=O)c2ccc(-c3cccn(C)c3=O)cc2)c(O)n1[C@@H](CC)c1ccc(C#N)c(F)c1 [Example 518, 4-[(1S)-1-{2-butyl-6-hydroxy-5-[4-(1-methyl-2-oxo-1,2-dihydropyridin-3-yl)benzenesulfonyl]-4-oxo-1,4-dihydropyrimidin-1-yl}propyl]-2-fluorobenzonitrile]",0.01 to 10 nM
2,"CCCCc1nc(=O)c(S(=O)(=O)c2ccc(-c3ccc(F)cc3C(N)=O)cc2)c(O)n1[C@H](c1cccc(C#N)c1)C1CC1 [Example 477, 4′-({2-butyl-1-[(S)-(3-cyanophenyl)(cyclopropyl)methyl]-6-hydroxy-4-oxo-1,4-dihydropyrimidin-5-yl}sulfonyl)-4-fluoro-[1,1′-biphenyl]-2-carboxamide]",0.01 to 10 nM
3,"CC[C@@H](c1cccc(C#N)c1)n1c(CC2CC2)nc(=O)c(S(=O)(=O)c2ccc(-c3cnccc3C(N)=O)cc2)c1O [Example 472, 3-[4-({1-[(1S)-1-(3-cyanophenyl)propyl]-2-(cyclopropylmethyl)-6-hydroxy-4-oxo-1,4-dihydropyrimidin-5-yl}sulfonyl)phenyl] pyridine-4-carboxamide]",0.01 to 10 nM
4,"CCCCc1nc(=O)c(S(=O)(=O)c2ccc(-c3ccc(F)cc3C(N)=O)cc2)c(O)n1[C@@H](CC)c1cccc(C#N)c1 [Example 494, 4′-({2-butyl-1-[(1S)-1-(3-cyanophenyl)propyl]-6-hydroxy-4-oxo-1,4-dihydropyrimidin-5-yl}sulfonyl)-4-fluoro-[1,1′-biphenyl]-2-carboxamide]",0.01 to 10 nM
5,"CCCCc1nc(=O)c(S(=O)(=O)c2ccc(-c3ccccc3C)cc2)c(O)n1[C@@H](CC)c1cccc(C#N)c1 [Example 491, 3-[(1S)-1-[2-butyl-6-hydroxy-5-({2′-methyl-[1,1′-biphenyl]-4-yl}sulfonyl)-4-oxo-1,4-dihydropyrimidin-1-yl]propyl]benzonitrile]",0.01 to 10 nM

# Same assay, conditions: human APJ, cAMP accumulation; read-out: Human APJ cAMP EC50 Potency range
row,Compound,EC50
1,"CCCCc1nc(=O)c(S(=O)(=O)c2ccc(Br)cc2)c(O)n1[C@@H](CC)c1cccc(C#N)c1 [Example 302, 3-[(1S)-1-[5-(4-bromobenzenesulfonyl)-2-butyl-4-hydroxy-6-oxo-1,6-dihydropyrimidin-1-yl]propyl]benzonitrile]",0.01 to 10 nM
2,"CCCCc1nc(=O)c(S(=O)(=O)c2ccc(-n3ccccc3=O)cc2)c(O)n1[C@@H](CC)c1ccccc1 [Example 287, 2-butyl-6-hydroxy-5-[4-(2-oxo-1,2-dihydropyridin-1-yl)benzenesulfonyl]-1-[(1S)-1-phenylpropyl]-1,4-dihydropyrimidin-4-one]",0.01 to 10 nM
3,"CC[C@@H](c1ccccc1)n1c(C2CCCC2)nc(=O)c(S(=O)(=O)c2ccc(-c3cncc(F)c3)cc2)c1O [Example 283, 2-cyclopentyl-5-[4-(5-fluoropyridin-3-yl)benzenesulfonyl]-6-hydroxy-1-[(1S)-1-phenylpropyl]-1,4-dihydropyrimidin-4-one]",0.01 to 10 nM
4,CCCCc1nc(=O)c(S(=O)(=O)c2ccc(-c3cccnc3C)cc2)c(O)n1[C@@H](C)c1ccc(OC)cc1 [Example 227],0.01 to 10 nM
5,"CCCCc1nc(O)c(S(=O)(=O)c2ccc(Br)cc2)c(=O)n1[C@H]1CCCc2ccccc21 [Example 235, 5-(4-bromobenzenesulfonyl)-2-butyl-6-hydroxy-3-[(1S)-1,2,3,4-tetrahydronaphthalen-1-yl]-3,4-dihydropyrimidin-4-one]",10 to 100 nM
6,"CCOCc1nc(=O)c(S(=O)(=O)c2ccc(Br)cc2)c(O)n1[C@@H](COC)c1ccccc1 [Example 296, 5-(4-bromobenzenesulfonyl)-2-(ethoxymethyl)-6-hydroxy-1-[(1R)-2-methoxy-1-phenylethyl]-1,4-dihydropyrimidin-4-one]",100 to 300 nM

# Same assay, conditions: human APJ, intracellular cAMP accumulation; read-out: Human APJ cAMP EC50 Potency range
row,Compound,EC50
1,"COC[C@@H](c1ccccc1)n1c(CC2CC2)nc(=O)c(S(=O)(=O)c2ccc(Br)cc2)c1O [Example 123, 5-(4-bromobenzenesulfonyl)-2-(cyclopropylmethyl)-6-hydroxy-1-[(1R)-2-methoxy-1-phenylethyl]-1,4-dihydropyrimidin-4-one]",100 to 300 nM
